In one assay the target is T1, Aurora A (Homo sapiens, UniProt O14965).
T1 construct: purchased Invitrogen PV3612
T1 sequence (O14965 1-403): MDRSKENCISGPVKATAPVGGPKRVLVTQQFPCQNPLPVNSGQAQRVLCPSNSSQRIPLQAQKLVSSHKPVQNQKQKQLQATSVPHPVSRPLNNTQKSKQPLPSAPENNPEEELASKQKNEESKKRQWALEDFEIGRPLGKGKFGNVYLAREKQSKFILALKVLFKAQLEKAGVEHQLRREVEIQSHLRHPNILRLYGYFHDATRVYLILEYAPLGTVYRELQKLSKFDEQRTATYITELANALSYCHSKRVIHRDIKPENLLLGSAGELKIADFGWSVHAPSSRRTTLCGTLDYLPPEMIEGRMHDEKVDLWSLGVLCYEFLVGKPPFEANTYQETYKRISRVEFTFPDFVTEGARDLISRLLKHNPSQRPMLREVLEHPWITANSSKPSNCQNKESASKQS
Kind of assay: Aurora A Inhibition Assay (Z-Lyte). In kind it is biochemical. The note with it: read-out: Aurora A relative inhibition percentage at a dose of 1 μM. The method, then:
Aurora A inhibition was determined using the Z-Lyte assay kit from Invitrogen. The assay was performed using the recommended manufacturer's instructions with 20 μM ATP and 12 nM Aurora A (Invitrogen cat # PV3612). The % inhibition values were determined according to the manufacturer's directions and IC50 values were obtained using a non-linear 4 point logistic curve fit (XLfit4, IDBS)

Assay [1] deals with A549 lung cancer cell line. In words: Cell growth inhibition, Sulforhodamine B assay (SRB). In kind it is cell-based. The note with it: Homo sapiens, read-out: Cell Line GI50 Range A-549. The method, then:
(§1) The cells were cultured for 5 days before the Sulforhodamine B assay (SRB) was performed to determine the compound's cell growth inhibition activity.
(§2) Sulforhodamine B (purchased from Sigma, Oakville, ON, Canada) is a water-soluble dye that binds to the basic amino acids of the cellular proteins. Thus, colorimetric measurement of the bound dye provides an estimate of the total protein mass that is related to the cell number. the cells are fixed in situ by gently aspirating off the culture media and adding 50 μl ice cold 10% Trichloroacetic Acid (TCA) per well and incubate at 4° C. for 30-60 min, The plates are washed with water five times and allowed to air dry for 5 min. […] Following staining, plates are washed four times with 1% acetic acid to remove unbound dye and then allowed to air dry for 5 min. […] Absorbance is read at 570 nm.
(§3) The percentage (%) of relative growth inhibition was calculated by comparing to DMSO treated only cells (100%). GI50's were determined for compounds with cytotoxic activity. The GI50 was calculated using GraphPad PRISM software (GraphPad Software, Inc., San Diego, Calif., USA).
(In general: The SRB assay estimates cell density from bound dye.)

Assay [2] has as its system HCC1954 basal breast cancer cell line. The assay is described as above. In kind it is cell-based. The note with it: Homo sapiens, 5 days culture, SRB. The protocol: as §1, §2, §3
In assay [3] the test system is MCF-7 luminal breast cancer cell line. Described as above. The note with it: Homo sapiens, MCF7, 120 h, read-out: Cell Line GI50 Range MCF-7. In kind it is cell-based. The protocol: as §1, §2, §3
Assay [4] concerns MDA-MB-468 basal breast cancer cell line. The assay is described as above. In kind it is cell-based. The note with it: Homo sapiens, 5 days culture, SRB. The method, then:
as §1, §2, §3

The test system of assay [5] is SW620 colon cancer cell line. The description is as above. The note with it: Homo sapiens, SW-620, 120 h, read-out: Cell Line GI50 Range SW-620. In kind it is cell-based. The method, then:
as §1, §2, §3

Where [6] appears, read: 120 h, A549 lung cancer cell line, 5 days culture, SRB.
Where [7] appears, read: HCC1954, 120 h, HCC1954 basal breast cancer cell line, read-out: Cell Line GI50 Range HCC-1954.
[8] abbreviates: MCF-7 luminal breast cancer cell line, 5 days culture, SRB.
[9] abbreviates: 120 h, MDA-MB-468 basal breast cancer cell line, read-out: Cell Line GI50 Range MDA-MB-468.
[10] abbreviates: SW620 colon cancer cell line, 5 days culture, SRB.
The mark [11] stands for this setting: 120 h, HCC1954 basal breast cancer cell line, read-out: Cell Line GI50 Range HCC-1954.

Like-named read-outs stand apart in the source and are kept apart here. Some results are limits rather than exact numbers.

The term inhibition denotes how much of the control response was suppressed. The term GI50 denotes the concentration at which growth is held to half of that of the control.

For `Cc1ccc2c(c1)[C@@]1(C[C@@H]1c1ccc3c(/C=C/c4ccc(CN5CCOCC5)cc4)n[nH]c3c1)C(=O)N2` (racemic) [Example A196, (1R*,2S*)-(E)-5′-methyl-2-(3-(4-(morpholinomethyl)styryl)-1H-indazol-6-yl)spiro[cyclopropane-1,3′-indolin]-2′-one 2,2,2-trifluoroacetate], the inhibition at 1 µM at Aurora A was > 50%.

With `COc1ccc2c(c1)[C@@]1(C[C@@H]1c1ccc3c(-c4ccc(N5CCN(C(C)C)CC5)cc4)n[nH]c3c1)C(=O)N2` (racemic) [Example A96, (1R*,2S*)-2-(3-(4-(4-isopropylpiperazin-1-yl)phenyl)-1H-indazol-6-yl)-5′-methoxyspiro[cyclopropane-1,3′-indolin]-2′-one], the inhibition at 1 µM at Aurora A (1 μM compound, 20 μM ATP) was < 50%. Also, the 50% growth inhibitory concentration (GI50) is < 100 nM in assay [1] (setting [6]); 1000 to 10000 nM in assay [2] (setting [7]); < 100 nM in assay [3] (setting [8]); < 100 nM in assay [4] (setting [9]); < 100 nM in assay [5] (setting [10]).

With `O=C1Nc2ccccc2[C@@]12C[C@@H]2c1ccc2c(/C=C/c3ccc(CN4CCCC4)cc3)n[nH]c2c1` (racemic) [Example A60, (1R*,2S*)-(E)-2-(3-(4-(pyrolidin-1-ylmethyl)styryl)-1H-indazol-6-yl)spiro[cyclopropane-1,3′-indolin]-2′-one 2,2,2-trifluoroacetate], the inhibition at 1 µM on Aurora A (1 μM compound, 20 μM ATP) is > 50%.

Consider `COc1ccc2c(c1)[C@]1(C[C@@H]1c1ccc3c(-c4ccc(N5CCN(C)CC5)nc4)n[nH]c3c1)C(=O)N2` (relative stereo) [Example A17, (1R*,2R*)-5′-Methoxy-2-(3-(6-(4-methylpiperazin-1-yl)pyridin-3-yl)-1H-indazol-6-yl)spiro[cyclopropane-1,3′-indolin]-2′-one], for which the inhibition at 1 µM at Aurora A (1 μM compound, 20 μM ATP) was < 50%.

As to `COc1ccc2c(c1)[C@@]1(C[C@@H]1c1ccc3c(/C=C/c4csc(CN5CCOCC5)c4)n[nH]c3c1)C(=O)N2` (racemic) [Example A184, (1R*,2S*)-5′-methoxy-2-(3-((E)-2-(5-(morpholinomethyl)thiophen-3-yl)vinyl)-1H-indazol-6-yl)spiro[cyclopropane-1,3′-indolin]-2′-one 2,2,2-trifluoroacetate], the inhibition at 1 µM at Aurora A (1 μM compound, 20 μM ATP) is > 50%. For the same molecule, the GI50 in assay [1] (setting [6]) is < 100 nM; in assay [2] (setting [11]), > 10000 nM; in assay [3] (setting [8]), 100 to 1000 nM; in assay [4] (setting [9]) it was < 100 nM; in assay [5] (setting [10]) it was < 100 nM.

On to `CCN1CCN(c2ccc(/C=C/c3n[nH]c4cc([C@@H]5C[C@@]56C(=O)Nc5ccc(OC)cc56)ccc34)cc2)CC1` (racemic) [Example A188, (1R*,2S*)-(E)-2-(3-(4-(4-ethylpiperazin-1-yl)styryl)-1H-indazol-6-yl)-5′-methoxyspiro[cyclopropane-1,3′-indolin]-2′-one 2,2,2-trifluoroacetate], for which, at Aurora A (1 μM compound, 20 μM ATP), the inhibition at 1 µM is > 50%. Besides, the GI50 in assay [1] (setting [6]) is < 100 nM; in assay [2] (setting [11]), 100 to 1000 nM; in assay [3] (setting [8]), < 100 nM; in assay [4] (setting [9]), < 100 nM; in assay [5] (setting [10]), < 100 nM.

In the case of `COc1ccc2c(c1)[C@@]1(C[C@@H]1c1ccc3c(/C=C/c4cc(F)c(CN5CCOCC5)c(F)c4)n[nH]c3c1)C(=O)N2` (racemic) [Example A217, (1R*,2S*)-(E)-2-(3-(3,5-difluoro-4-(morpholinomethyl)styryl-1H-indazol-6-yl)-5′-methoxyspiro[cyclopropane-1,3′-indolin]-2′-one 2,2,2-trifluoroacetate], at Aurora A (1 μM compound, 20 μM ATP), the inhibition at 1 µM is > 50%.

`COc1ccc2c(c1)[C@@]1(C[C@@H]1c1ccc3c(/C=C/c4ccc(CN5CCOCC5)cc4)n[nH]c3c1)C(=O)N2` (racemic) [Example A41, (1R*,2S*)-(E)-5′-methoxy-2-(3-(4-(morpholinomethyl)styryl)-1H-indazol-6-yl)spiro[cyclopropane-1,3′-indolin]-2′-one 2,2,2-trifluoroacetate]: at Aurora A (1 μM compound, 20 μM ATP), the inhibition at 1 µM was > 50%.

`COc1ccc2c(c1)[C@@]1(C[C@@H]1c1ccc3c(-c4ccc(CO)cc4)n[nH]c3c1)C(=O)N2` (racemic) [Example A45, (1R*,2S*)-2-(3-(4-(hydroxymethyl)phenyl)-1H-indazol-6-yl)-5′-methoxyspiro[cyclopropane-1,3′-indolin]-2′-one 2,2,2-trifluoroacetate]: the GI50 in assay [1] (setting [6]) is 100 to 1000 nM; in assay [2] (setting [11]) it was > 10000 nM; in assay [3] (setting [8]), 1000 to 10000 nM; in assay [4] (setting [9]), 100 to 1000 nM; in assay [5] (setting [10]), 1000 to 10000 nM.

Take `O=C1Nc2ccccc2[C@@]12C[C@@H]2c1ccc2c(/C=C/c3ccc(CN4CCCCC4)cc3)n[nH]c2c1` (racemic) [Example A57, (1R*,2S*)-(E)-2-(3-(4-(piperidin-1-ylmethyl)styryl)-1H-indazol-6-yl)spiro[cyclopropane-1,3′-indolin]-2′-one 2,2,2-trifluoroacetate]: the inhibition at 1 µM at Aurora A (1 μM compound, 20 μM ATP) is > 50%.

Consider `NS(=O)(=O)c1cccc(-c2n[nH]c3cc([C@@H]4C[C@@]45C(=O)Nc4ccccc45)ccc23)c1` (racemic) [Example A130, 3-(6-((1R*,2S*)-2′-oxospiro[cyclopropane-1,3′-indoline]-2-yl)-1H-indazol-3-yl)benzenesulfonamide], for which the GI50 in assay [1] (setting [6]) was > 10000 nM; in assay [2] (setting [11]), > 10000 nM; in assay [3] (setting [8]), 1000 to 10000 nM; in assay [4] (setting [9]) it was 1000 to 10000 nM; in assay [5] (setting [10]), > 10000 nM.

Consider `COc1ccc2c(c1)[C@@]1(C[C@@H]1c1ccc3c(-c4ccc(N5CCN(C)CC5)cc4)n[nH]c3c1)C(=O)N2` (racemic) [Example A38, (1R*,2S*)-5′-Methoxy-2-(3-(4-(4-methylpiperazin-1-yl)phenyl)-1H-indazol-6-yl)spiro[cyclopropane-1,3′-indolin]-2′-one], for which the GI50 in assay [1] (A549, 120 h) was < 100 nM; in assay [2] (HCC1954, 120 h, read-out: Cell Line GI50 Range HCC-1954, HCC1954 basal breast cancer cell line), > 10000 nM; in assay [3], 100 to 1000 nM; in assay [4] (MDA-MB-468, 120 h, read-out: Cell Line GI50 Range MDA-MB-468, MDA-MB-468 basal breast cancer cell line) it was < 100 nM; in assay [5], 100 to 1000 nM.

With `O=C1Nc2ncc(Br)cc2[C@@]12C[C@@H]2c1ccc2c(/C=C/c3cccnc3)n[nH]c2c1` (racemic) [Example A27, (1R*,2S*)-5′-bromo-2-(3-((E)-2-(pyridin-3-yl)vinyl)-1H-indazol-6-yl)spiro[cyclopropane-1,3′-pyrrolo[2,3-b]pyridin]-2′(1′H)-one], the GI50 in assay [1] (setting [6]) lay within 1000 to 10000 nM; in assay [2] (setting [7]), 1000 to 10000 nM; in assay [3] (setting [8]) it was 1000 to 10000 nM; in assay [4] (setting [9]), 100 to 1000 nM; in assay [5] (setting [10]), 1000 to 10000 nM.

(Values after patent publication US8481525B2, “Kinase inhibitors and method of treating cancer with same” (University of Health Network, priority 2009, dated 2013).)
